From US20050158280A1, “Method of reducing angiogenesis” (priority 2001, published 2005)

Key:
ATPDase/CD39 [1] = settings: cited from earlier work; for Specific ADPase activity / ATPase activity: HUVEC lysate, n=6; for Specific ADPase activity: mean SD, control liposomes 26.0±3.1; for ATPase activity: control liposomes 28.2±4.6
HUVEC [2] = settings: cited from earlier work; for rate of ATP hydrolysis by EC: HUVEC after transfection, n=9, liposome treated controls 17.9
CD39 = settings: HUVEC, cited from earlier work; for immunoreactive intact CD39 (densitometric analysis of Western blot): 48 h after transfection, control liposomes = 100%
HUVEC [3] = settings: cited from earlier work
CD39 mRNA = settings: HUVEC, 48 h post-transfection; vs scrambled oligonucleotides and control liposomes; cited from earlier work
ATPDase/CD39 [4] = settings: COS-7 cells; cited from earlier work
monocyte/macrophages = assay: Transmigration of monocyte/macrophages through an endothelial cell monolayer; assay type: cell-based, mouse
Method: (§1) Transmigration assays through an endothelial cell monolayer were performed (Jones, G. E. J. Leukoc. Biol. 68:593-602, 2000). Murine 2F2B endothelial cells (ATCC) were plated on collagen type 1-coated polycarbonate inserts with 3-μm pores (Costar, Fisher Scientific) and then incubated in RPMI containing 5% FCS overnight to attain full confluence. Wild-type or cd39-null peritoneal macrophages were added to the upper chamber and incubated at 37° C. in 5% CO2 for 10 hours. In the lower chamber, culture media with chemoattractant factors at various combinations were added: ATP 200 μmol/L, serotonin 20 μmol/L, and monocyte chemoattractant factor-1 (MCP-1) 50 ng/mL. Nonadherent cells in both supernatant fluids were counted. In parallel experiments, inserts were precoated with collagen or MATRIGEL® alone. Wild-type and cd39-null macrophages were plated on the upper surface of coated inserts. Cells were allowed to adhere and migrate over a 6-hour period. Cells on the lower surface were fixed in 2% ethanol and stained with 0.2% crystal violet (Sigma). Four fields of vision (×400) per well were randomly chosen, and cell counts were performed manually by 2 observers in a blinded fashion.

macrophages = assay: Transmigration of macrophages on MATRIGEL-coated Transwell membranes; assay type: cell-based, mouse; settings: for migration through MATRIGEL (FIG. 5, in words): cd39-null knockout (KO) macrophages; for number of transmigrated macrophages (normalized to wild-type): cd39-null macrophages, nonstimulated null 80±30.0% of wild-type; for number of transmigrated macrophages (normalized to wild-type) / number of transmigrated macrophages (normalized): MATRIGEL-coated Transwell; for number of transmigrated macrophages (normalized): wild-type macrophages, no endothelial cells, ATP 200 μmol/L, serotonin 20 μmol/L, MCP-1 50 ng/mL
Method: as §1

peritoneal macrophages = assay: Cytofluorometric (FACS) analysis of macrophage integrin/ICAM-1 surface expression; assay type: cell-based, mouse; settings: 200 μmol/L, vs control; for αmβ2 (MAC-1) and ICAM-1 coexpression levels: quiescent cd39-null macrophages; for cell surface coexpression of αmβ2 (MAC-1) and ICAM-1: wild-type macrophages, 30 minutes
Method: After isolation, naive peritoneal macrophages were also stimulated for 30 minutes (or for 24 hours) in RPMI+5% FCS, both at 37° C., with ATP 200 μmol/L, or with ATPγS 200 μmol/L, and then washed with PBS. Nonspecific binding of isospecific IgG was controlled by incubation with isospecific IgG conjugated to FITC and phycoerythrin, respectively. Cells were double-stained with phycoerythrin-conjugated rat anti-mouse CD11b in conjunction with FITC-labeled anti-mouse intercellular adhesion molecule (ICAM)-1 (or very late antigen-1, -4), respectively. Fluorescence-activated cell sorter (FACS) analysis was performed (FACSCAN™, Becton Dickinson). Data were analyzed with CELLQUEST™ computer software (Becton Dickinson).

[5] = cd39-null monocyte/macrophages, ATP 200 μmol/L or MCP-1 50 ng/mL, spontaneous 6200±1200
[6] = wild-type monocyte/macrophages, ATP 200 μmol/L or MCP-1 50 ng/mL in lower chamber, spontaneous 4900±400

| Compound | Specific ADPase activity (ATPDase/CD39 [1]) [nmole Pi/min/mg protein] | ATPase activity (ATPDase/CD39 [1]) [nmole Pi/min/mg protein] | rate of ATP hydrolysis by EC (HUVEC [2]) [pmole/min/10^6cells] | immunoreactive intact CD39 (densitometric analysis of Western blot) (CD39) [%] | Total cell protein content (HUVEC [3]) | monocyte/macrophages migrated across the endothelial cell monolayer (monocyte/macrophages; [5]) | monocyte/macrophages migrated across the endothelial cell monolayer (monocyte/macrophages; [6]) | migration through MATRIGEL (FIG. 5, in words) (macrophages) | number of transmigrated macrophages (normalized to wild-type) (macrophages) [%] | number of transmigrated macrophages (normalized) (macrophages) [%] | αmβ2 (MAC-1) and ICAM-1 coexpression levels (peritoneal macrophages) | cell surface coexpression of αmβ2 (MAC-1) and ICAM-1 (peritoneal macrophages) | other results |
| --- | --- | --- | --- | --- | --- | --- | --- | --- | --- | --- | --- | --- | --- |
| 5′-CTCCTTTGTATCTTCCATAAGTAGC-3′ (antisense CTCCTTTGTATCTTCCATAAGTAGC; chimeric second generation modifications, further chemistry not given here) [antisense oligonucleotides] | 9.5±3.4 | 15.1±3.4 | 4.8 | 66 | 17.6±2.8 (g/10^6cells |  |  |  |  |  |  |  | ATPase activity, of control levels (ATPDase/CD39 [1]; HUVEC, residual activity): 53%; ATPase activity, of that for scrambled control oligomers (ATPDase/CD39 [1]; HUVEC, residual activity): 51%; Normalized ADPase activity, compared with scrambled oligomers (ATPDase/CD39 [1]; HUVEC, residual activity): 42%; Normalized ADPase activity, of control liposomes (ATPDase/CD39 [1]; HUVEC, residual activity): 36%; boost of area under curve estimates of ATP release (HUVEC [2]; ADP-stimulated HUVEC, over first 15 min, compared to controls): 194%; apparent decrease in CD39 protein expression (qualitative Western blotting) (CD39; 48 h): approximately 40%; cell viability determined by trypan blue exclusion (HUVEC [3]): over 90%; CD39 mRNA expression (Northern blotting) (CD39 mRNA): specifically inhibited transcription of CD39 mRNA; ADPase levels, of control cells transfected with CD39 cDNA (ATPDase/CD39 [4]): 15%; ATPase levels, of control cells transfected with CD39 cDNA (ATPDase/CD39 [4]): approximately 5% |
| 5′-TTCGTATCTTCGCTAGCTTATACAC-3′ (TTCGTATCTTCGCTAGCTTATACAC; chemistry not given here) [scrambled control oligonucleotides] | 22.6±2.1 | 29.1±1.2 | 19.6 | 103 | 17.7±1.8 (g/10^6cells |  |  |  |  |  |  |  |  |
| Nc1ncnc2c1ncn2[C@@H]1O[C@H](COP(=O)(O)OP(=O)(O)OP(=O)(O)O)[C@@H](O)[C@H]1O [ATP, adenosine triphosphate] |  |  |  |  |  | 8,750±4,100 cells | 22,300±3,300 cells | no substantial effect | 108±24 | 230±20 | largely unaltered | increased significantly |  |
| Nc1ncnc2c1ncn2[C@@H]1O[C@H](COP(=O)(O)OP(=O)(O)OP(O)(O)=S)[C@@H](O)[C@H]1O [ATPγS] |  |  |  |  |  |  |  |  |  |  | largely unaltered | increased significantly |  |
| NCCc1c[nH]c2ccc(O)cc12 [serotonin] |  |  |  |  |  |  |  | no substantial effect | 98±20.0 | 120±20 |  |  |  |
| monocyte chemoattractant factor-1 [MCP-1] |  |  |  |  |  | 35,200±7,300 cells | 61,800±23,400 cells |  | 303±17 | 450±20 |  |  |  |
